Earlier results, collected in patent US7727979B2, “Guanidine derivatives and their use as neuropeptide FF receptor antagonists” (Actelion Pharmaceuticals Ltd., priority 2003, dated 2010).

Tested on: human and rat-NPFF1 receptor

- times higher affinity to NPFF1 receptor than to the corresponding NPFF2 receptors: 10-60 times
Compound: NC(N)=NCCC[C@@H](NC(=O)C(c1ccccc1)c1ccccc1)C(=O)NCc1ccc(O)cc1 [BIBP3226]
